In patent US20120202258A1, “LIGE-TYPE TRANSFORMANTS FOR BIOCONVERSION OF LIGNIN-DERIVED COMPOUNDS” (priority 2010, published 2012):

B1: ligE1: N. aromaticivorans putative beta-etherase polypeptide, glutathione S-transferase-like protein, expressed in E. coli (protein)
chain: MAANNTITFYDLALSTGATISPFVWATKYALKHKGFDLDVVPGGFTGILERTGGKTERLPAIVDDGEFVLDSWGIVEYLDAKYPDRPVLIPHESVAATLKALDNWFWNAAVGPWMFCFCQDYRDLSLPQDHEYVTHSREKMLGRKLEEVQAGREERLPKISAALEPLRAALAQHQWLGGSSPNYADYRIMGGILFTASVCKTPVLANDDPLRDWIERCLDLYGGLGRHPGLFPLFGLEQREGDPDLFNRAAGQGGIYKRNTGPESTRAETQRITEGMKK
B2: LigF2: N. aromaticivorans putative beta-etherase polypeptide, glutathione S-transferase-like protein (protein)
chain: MALKYYHAEPLANSLKSMVPLKEKGLAYESIYVDLHKFEQHQPWFTAINPEGQVPVLDHDGTIITHTTVINEYLEDAFPDAQPADAPLRPRDPVGAARMRYWNKFIDEHVMNYVSMHGWHRMVGVIARNIASGDFEKLLESIPLPDQRKKWATARSGFSEADLANATAKIEYALDKVEKQLGETKWLAGDTYTLADINFYSHCGAMVERMFPEMEVARRAPRLCEWRDRVAARPAVAEALKSEDRTAPGLRVWSGEVR
B3: ABD27309.1: N. aromaticivorans putative beta-etherase polypeptide (protein)
chain: MDEVSLYHWEPNANSGKPMLALMEKGVPFSSHYIDMLQFDQHKPEYLAINPQGTIPAMTHNGQVLTESTAIMEYVNDRFDGPDLMPADAQDRWRVRWWMKFMDQWLGPSFSMIGWSVFVGPMVRQRDPAELAAAIDRIPLPERRTAWRKAINGDFSESEMAESRRRVGLGIAKLEEELGKRPYVGSNQYSLADINIFNSTYSLPISQPDLAGKDRTPNIMRWLKRVYTREAVKKTWAMGKTDLAHRYGLIMAEIEG
B4: ABD26530.1: N. aromaticivorans putative beta-etherase polypeptide (protein)
chain: MVIPLGEDNTIMLKLYSFGPAANSMKPLLTVFEKGLDVEKHRLDPAKFEHHTDWFKAINPRGQVPALVDGDKVVTESTVICEYLEDEYPTEVALRPADSFGKAQMRIWTKWVDEYFCWCVSTIGWHRYVGNMVKSLSDAEFEEKVKAIPVIEQQVKWRRAREGFPQDMLDEEMRKIAYSVRKLDDHLADHEWLVPGQYTLADICNFAIANGMQFGFAELVNKQDTPHLVRWIEQINERPAVKQMFAQVELEKLGPRE
B5: LigG: S. paucimobilis glutathione-eliminating glutathione S transferase gene product (protein)
chain: MSGASARSLGKGSAPPGPVPEGQIRVYSMRFCPFAQRTLMVLKAKGIRHEIININLKNKPEWFFEKNPFGLVPVLENTQGHLITESVITCEYLDEAYPEKKLFPDDPYEKACQKMTFELFSKVPSLVTSFIRAKRKEDHPGIKEELKKEFSKLEEAMANKRTAFFGGNSLSMIDYLIWPWFQRLEALELNECIDHTPKLKLWMATMQEDPVASSHFIDAKTYRDYLSLYLQDSPEACDYGL
B6: LigF: S. paucimobilis beta-etherase, positive control polypeptide (protein)
chain: MTLKLYSFGPGANSLKPLATLYEKGLEFEQVFVDPSKFEQHSDWFKKINPRGQVPALWHDGKVVTESTVICEYLEDVFPESGNSLRPADPFKRAEMRVWTKWVDEYFCWCVSTIGWAFGIKAIAQKMSDEEFEEHINKNVPIPEQQLKWRRARNGFPQEMLDEEFRKVGVSVARLEETLSKQDYLVDTGYSLADICNFAIANGLQRPGGFFGDYVNQEKTPGLCAWLDRINARPAIKEMFEKSKREDLLKRQNEKVA
B7: ligE: S. paucimobilis beta-etherase, positive control polypeptide (protein)
chain: MARNNTITLYDLQLESGCTISPYVWRTKYALKHKGFDIDIVPGGFTGILERTGGRSERVPVIVDDGEWVLDSWVIAEYLDEKYPDRPMLFEGPTQKNLMKFLDNWLWSTAVGPWFRCYILDYHDLSLPQDRDYVRWSREQWFLGGQRLEDVQAGREDRLPLVPPTLEPFRRILAETKWLGGDQPNFADYSALAVFLWTASVARTPPLTEDDPLRDWLDRGFDLFDGLGRHPGMNPLFGLKLREGDPEPFVRQTGPAGAGGQALNKGPQTTKMPPRVAEKAD

Test system: not listed separately
Test: in vitro beta-etherase biochemical assay on fluorescent substrate MUAV (4MU fluorescence), clarified E. coli cell extracts
Conditions: 0.1 mM MUAV substrate
Description: The model substrate synthesis 150 for use in the biochemical screening for selective activity can be outsourced through a contract research organization (CRO). The enzyme discovery effort can initially be focused on identifying potential beta-etherase candidate genes identified through bioinformatic methods. […] The fluorescent substrate α-O-(β-methylumbelliferyl) acetovanillone (MUAV), for example, can be used in in vitro assays to identify beta-etherase function (Acme Biosciences, Mt. View, Calif.). The formation of 4 methylumbelliferone (4MU) upon hydrolysis of the aryl ether bond can be monitored by fluorescence, for example, at λex=365 nm and λem=450 nm (or 460 nm).
The enzyme screening 155 is done to identify novel etherases 160. […] Expression of the beta-etherase genes can be done in 5 ml or 25 ml samples of the recombinant E. coli strains in LB medium using induction with IPTG. Following induction, and cell harvest, cell pellets can be be lysed using the BPER (Invitrogen) cell lysis system. […] The formation of 4 methylumbelliferone (4MU) upon hydrolysis of the aryl ether bond in MUAV can be monitored by fluorescence at λex=365 nm and λem=460 nm, and can provide quantitative measurement of beta-etherase function. Cell extracts of E. coli transformed with the S. paucimobilis ligE and ligF genes can be the assay positive controls. Test or unknown samples can include, for example, E. coli strains expressing putative beta-etherase genes from N. aromaticovorans.
This example describes a method for gene expression in E. coli, as well as beta-etherase biochemical assays. Expression of known and putative beta-etherase genes was performed using 5 ml cultures of the recombinant E. coli strains described herein in Luria Broth medium by induction of gene expression using isopropylthiogalactoside (IPTG) to a final concentration of 0.1 mM. Following induction, and cell harvest, the cells were disrupted using either sonication or the BPER (Invitrogen) cell lysis system.
In vitro reactions were performed in a total volume of 200 ul and contained: 25 mM TrisHCl pH 7.5; 0.5 mM dithiothreitol; 1 mM glutathione; 0.05 mM or 0.1 mM MUAV; 10 ul of clarified cell extract used to initiate the reactions. Following incubation for 2.5 hours at room temperature, a 50 ul sample of the reactions was terminated using 150 uL of 300 mM glycine/NaOH buffer pH 9. The formation of 4 methylumbelliferone (4MU) upon hydrolysis of the aryl ether bond was monitored by the increase in fluorescence at λex=360 nm and λem=450 nm using a Spectramax UV/visible/fluorescent spectrophotometer.
The total protein concentrations of the cell lysates were determined using the BCA reagent system for protein quantification (Pierce).

Which “fold more efficient than S. paucimobilis ligE beta-etherase enzyme” value does the source give for B1 here?
Its value is “approximately 75 fold”.

Same assay, conditions: MUAV substrate; result in words

Which beta-etherase activity does the source give for B2 here?
The beta-etherase activity was “beta-etherase activity”.

Which beta-etherase activity does the source give for B3 here?
The beta-etherase activity was “beta-etherase activity”.

For B4, which beta-etherase activity is on record?
Its beta-etherase activity is “beta-etherase activity”.

Which beta-etherase activity does the source give for B1 here?
The beta-etherase activity was “beta-etherase activity”.

Test system: Escherichia coli
Test: not given
Conditions: demonstrated; result in words; cited from earlier work

With `O=Cc1ccc(O)c(O)c1O` [2,3,4-trihydroxybenzaldehyde] as the molecule, how does the “antibacterial activity against Escherichia coli” value read?
The value was “antibacterial activity”.

Which “antibacterial activity against Escherichia coli” value does the source give for `O=Cc1cccc(O)c1O` [2,3-dihydroxybenzaldehyde] here?
The value was “antibacterial activity”.

Which “antibacterial activity against Escherichia coli” value does the source give for `O=Cc1ccccc1O` [2-hydroxybenzaldehyde] here?
Its value is “antibacterial activity”.

Which “antibacterial activity against Escherichia coli” value does the source give for `COc1cc(O)cc(OC)c1C=O` [4-hydroxy-2,6-dimethoxybenzaldehyde] here?
Its value is “antibacterial activity”.

With `COc1cccc(C=O)c1O` [2-hydroxy-3-methoxybenzaldehyde] as the molecule, how does the “antibacterial activity against Escherichia coli” value read?
Its value is “antibacterial activity”.

With `COc1ccc(O)c(C=O)c1` [2-hydroxy-5-methoxybenzaldehyde] as the molecule, how does the “antibacterial activity against Escherichia coli” value read?
The value was “antibacterial activity”.

Which “antibacterial activity against Escherichia coli” value does the source give for `O=Cc1cc(O)ccc1O` [2,5-dihydroxybenzaldehyde] here?
Its value is “antibacterial activity”.

Which “antibacterial activity against Escherichia coli” value does the source give for `O=Cc1ccc(O)cc1O` [2,4-dihydroxybenzaldehyde] here?
The value was “antibacterial activity”.

Which “antibacterial activity against Escherichia coli” value does the source give for `O=Cc1c(O)cc(O)cc1O` [2,4,6-trihydroxybenzaldehyde] here?
The value was “antibacterial activity”.

Same assay, conditions: known; result in words; cited from earlier work

Which “antimicrobial activity against Escherichia coli” value does the source give for `O=Cc1ccco1` [furfural] here?
Its value is “antimicrobial activity”.

With `O=Cc1ccc(CO)o1` [5-hydroxymethylfurfural] as the molecule, how does the “antimicrobial activity against Escherichia coli” value read?
Its value is “antimicrobial activity”.

For `COc1cc(C=O)ccc1O` [vanillin], which “antimicrobial activity against Escherichia coli” value is on record?
The value was “antimicrobial activity”.

Which “antimicrobial activity against Escherichia coli” value does the source give for `COc1cc(C=O)cc(OC)c1O` [syringaldehyde] here?
The value was “antimicrobial activity”.

For `O=Cc1ccc(O)cc1` [4-hydroxybenzaldehyde], which “antimicrobial activity against Escherichia coli” value is on record?
The value was “antimicrobial activity”.

Test system: Saccharomyces cerevisiae
Test: not given
Conditions: result in words; cited from earlier work

For `COc1cc(CCC(C)=O)ccc1O` [vanillylacetone], which “antifungal activities against the yeast Saccharomyces cerevisiae” value (from here on “antifungal activities”) is on record?
The value was “significant antifungal activities”.

Which “antifungal activities” value does the source give for `COc1ccc(C=O)cc1OC` [Veratraldehyde] here?
Its value is “significant antifungal activities”.

Which “antifungal activities” value does the source give for `COc1cc(C(=O)O)ccc1O` [vanillic acid] here?
The value was “significant antifungal activities”.

For `O=C(O)/C=C/c1ccccc1O` [o-coumaric acid], which “antifungal activities” value is on record?
The value was “significant antifungal activities”.

Which “antifungal activities” value does the source give for `O=C(O)/C=C/c1cccc(O)c1` [m-coumaric acid] here?
The value was “significant antifungal activities”.

With `O=C(O)C=Cc1ccccc1` [cinnamic acid] as the molecule, how does the “antifungal activities” value read?
The value was “significant antifungal activities”.

Which “antifungal activities” value does the source give for `O=C(O)/C=C/c1ccc(O)cc1` [p-coumaric acid] here?
The value was “significant antifungal activities”.

Test system: not given
Test: not given
Conditions: FIG. 2B, S. paucimobilis LigDFEG gene cluster; result in words; cited from earlier work

For “LigD: S. paucimobilis C alpha-dehydrogenase gene product [reference compound]”, which “enzyme activity of gene product” value is on record?
The value was “Cα-dehydrogenase activity”.

With B5 as the molecule, how does the “enzyme activity of gene product” value read?
The value was “glutathione lyase activity”.

For B6, which “enzyme activity of gene product” value is on record?
Its value is “β-etherase activity”.

For B7, which “enzyme activity of gene product” value is on record?
Its value is “β-etherase activity”.
